Several values for one entry are separate records, joined by “and”; a condition that tells them apart may be missing. Identical values can stand only once. Activity calls are given as the source filed them.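 The calls were made as follows: active = compounds giving half or more protection of infected cells from virus-caused growth loss, again on retest; inactive = the rest.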
System: CEM cells HIV-1 protection, formazan growth assay
Assay: NCI AIDS Antiviral Assay
Conditions: for IC50: measured here: growth of uninfected CEM cells
How it was run: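 Protection of CEM cells against HIV-1 was scored from cell growth (soluble formazan) across five concentrations, with parallel uninfected cells. Lack of protection may reflect toxicity.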

Row | SMILES | EC50 | IC50 | outcome
1 | CCCCc1ccc(Nc2ncc3[nH]cnc3n2)cc1 | > 200 µM | 29.5 µM | 
2 | CCCCCCCCCCOC1C(C(C)OCCCN(C)C)OC2OC3(CCCCC3)OC21 (stereo not given) | > 200 µM | 10.5 µM | 
3 | O=S(=O)(O)c1cc(N=Nc2ccc(/C=C/c3ccc(N=Nc4cc(S(=O)(=O)O)c5cccnc5c4O)cc3)cc2)c(O)c2ncccc12 | 3.98 µM | 93.3 µM | 
4 | O=[N+]([O-])/C=C(\CS(=O)(=O)c1ccccc1)c1ccc2c(c1)OCO2 | > 81.3 µM | 31.6 µM | 
5 | CCOC(=O)C1(C(=O)OCC)CCC(C(OC)OC)C(CC(=O)OC)C1 (stereo not given) | > 200 µM | > 200 µM | 
6 | CC(C)OP(=O)(OC(C)C)c1nc(-c2ccccc2)n(-c2ccc([N+](=O)[O-])cc2)n1 | > 302 µM | 219 µM | 
7 | CN1CCN(C2=NCCO2)CC1 | > 200 µM | > 200 µM | 
8 | COc1ccc(/C=C(\C#N)c2ccccc2)cc1OC | > 70.8 µM | > 70.8 µM | 
9 | O=C1/C=C(/c2ccc(O)cc2)[C@@H](O)Cc2ccc(O)cc2O1 | > 200 µM | > 200 µM | 
10 | Cc1c(C(=O)CC(=O)C(=O)Nc2ccc(Cl)c(Cl)c2)[n+](=O)c2ccccc2n1[O-] | > 6.31 µM | > 6.31 µM | 
11 | O=C1Cc2c([nH]c3c(Br)cccc23)-c2ccccc2N1 | > 200 µM | 29.5 µM | 
12 | OCc1ccc2c(c1)CC1(C2)Cc2cc3c(cc2C1)CCC3 | > 200 µM | 0.977 µM | 
13 | OC1OCC(COc2cc(Cl)c(Cl)cc2Cl)OC1O (stereo not given) | > 30.2 µM | > 30.2 µM | 
14 | Cc1c(C(=O)O)[nH]c(=O)[nH]c1=O | > 200 µM | > 200 µM | 
15 | C=C(C)C(CC=C(C)C)Cc1c(O)cc(OC)c2c1OC(c1ccc(O)cc1O)C(O)C2=O (stereo not given) | > 200 µM | 29.5 µM | 
16 | C1=C2/CC[C@H](Sc3ccccc3)[C@H]2C2(CCCCC/1)OCCO2 | > 15.8 µM | > 15.8 µM | 
17 | Clc1ccccc1C1N2CCCCC2[C@@H]2c3[nH]c4ccccc4c3CCN12 (stereo not given in full) | > 50.1 µM | > 50.1 µM | 
18 | CCS(=O)(=O)c1cc(=O)[nH]c(=O)[nH]1 | 100 µM | 240 µM | 
19 | NC(=O)C(F)(Cc1ccccc1)C(=O)O (stereo not given) | > 200 µM | > 200 µM | 
20 | N#CC1(C#N)C(c2ccccc2)C=CC(c2ccc([N+](=O)[O-])cc2)C1(C#N)C#N (stereo not given) | > 200 µM | 3.55 µM | 
21 | COc1cc(-c2cc(=O)c3cc(C)c(C)c(C(=O)O)c3o2)cc(OC)c1OC |  |  | inactive
22 | O=C1c2ccccc2S[C@@H](O)[C@@H]2CCCN12 |  |  | inactive

Row | SMILES | EC50 | IC50 | outcome
23 | O=C(O)C1Cc2c([nH]c3ccccc23)C(C2CCNC2=S)N1 (stereo not given) |  |  | inactive
24 | COc1cc(/C=C\C(=O)O)ccc1O | > 200 µM | > 200 µM | 
25 | Oc1ccc(-c2nc(-c3ccc(F)cc3)c(-c3ccc4ccccc4n3)[nH]2)cc1 | > 200 µM | 21.4 µM | 
26 | CCC1(O)CCC2C3CC=C4CCCCC4C3CCC21C (stereo not given) | > 200 µM | 30.9 µM | 
27 | CCOC(=O)c1c(-c2ccccc2)csc1N | > 123 µM | 107 µM | 
28 | CC(=O)NC1C(=O)N(Cc2ccccc2)[C@@H]1COC(C)(C)C (stereo not given in full) | > 813 µM | > 813 µM | 
29 | S=C1Cc2c([nH]c3ccccc23)-c2ccccc2N1 | > 200 µM | 129 µM | 
30 | O=C(CN1CCN(c2ccccc2)CC1)N1CCc2c([nH]c3ccccc23)C1c1cccnc1 (stereo not given) | > 1.58 µM | > 1.58 µM | 
31 | CC1(C)CC(=O)C2=C(C1)Nc1ccccc1NC2c1ccccc1 (stereo not given) | > 200 µM | > 200 µM | 
32 | O=c1oc2cccnc2n1CCCCN1CCN(c2ccccc2)CC1 | > 200 µM | 126 µM | 
33 | Cn1c(=O)sc2cc(C(=S)N3CCOCC3)ccc21 | > 141 µM | 64.6 µM | 
34 | CCN(CC)CCC(=O)N1C/C(=C/c2ccccc2)C(=O)/C(=C\c2ccccc2)C1 | > 200 µM | 0.407 µM | 
35 | CCOC(=O)C(NC(=O)Nc1ccc(Cl)c(Cl)c1)C(F)(F)F (stereo not given) | > 200 µM | 141 µM | 
36 | O=c1[nH]nc(-c2ccccc2)n1/N=C/c1cccnc1 | > 200 µM | 61.7 µM | 
37 | CCc1ccc(NCc2cc(OC)c(OC)c(OC)c2)cc1 | > 166 µM | 0.372 µM and 0.151 µM | 
38 | O=C(O)C1OC12CCCCC2 (stereo not given) | > 200 µM | > 200 µM | 
39 | O=c1[nH]nc(-c2ccccc2)n1/N=C/c1ccc([N+](=O)[O-])cc1 | > 200 µM | > 200 µM | 
40 | NC(=O)Cn1c(=O)[nH]c(=O)c2[nH]cnc21 | > 174 µM | > 174 µM | 
41 | CCCCNCCCNCCCNC(=O)c1csc(-c2csc(CCNC(=O)C(NC(=O)C(C)C(O)C(C)NC(=O)C(NC(=O)c3nc(C(CC(N)=O)NCC(N)C(N)=O)nc(N)c3C)C(OC3OC(CO)C(O)C(O)C3OC3OC(CO)C(O)C(OC(N)=O)C3O)c3cnc[nH]3)C(C)O)n2)n1 (stereo not given) |  |  | inactive
42 | COC(=O)C1=C(C(=O)OC)C23CC4CCC2(C(=O)C1O3)C4(C)C (stereo not given) | > 251 µM | 16.6 µM | 
43 | CC(C)c1c(O[Si](C(C)C)(C(C)C)C(C)C)c2c3c(ccc4c3c1OC4(C)C)C(C)CC2 (stereo not given) | > 200 µM | > 200 µM | 
44 | CCOC(=O)c1[nH]n(-c2ccccc2)c(=O)c1/C=N/C(=S)NNC(C)=O |  | 138 µM | inactive

Row | SMILES | EC50 | IC50 | outcome
45 | CC(=O)O[C@H]1C[C@@H]2OC3C=C(C)CCC3(C)[C@@]1(C)[C@@]21CO1 (stereo not given in full) | > 2 µM | 0.105 µM | 
46 | c1cc2c(cc1NC1=NCCO1)CCCC2 | > 200 µM | 1.55 µM | 
47 | Cc1cc(C)nc(NS(=O)(=O)c2ccc(NC(=O)c3cccn4c(=O)c5ccccc5nc34)cc2)n1 |  |  | inactive
48 | CC(C)C1CSC2N1C(=O)C2(OCc1ccccc1)C1CC1 (stereo not given) | > 200 µM | 81.3 µM | 
49 | COc1ccc(S(=O)(=O)O)cc1-n1nc(C(=O)Nc2ccccc2)n[n+]1-c1cc(S(=O)(=O)[O-])ccc1OC | > 200 µM | > 200 µM | 
50 | CCN(CC)CCN1C(=O)c2cccc3cccc(c23)C1=O | > 200 µM | 9.77 µM | 
51 | COC(=O)C(C)(Cc1ccc2c(c1)nnn2C(C)=O)NC(C)=O (stereo not given) | > 200 µM | > 200 µM | 
52 | C(=N\Nc1nnc2c(n1)[nH]c1ccccc12)/c1ccccc1 | > 200 µM | > 200 µM | 
53 | COc1ccc(C2S/C(=C\c3cccc(O)c3)C(=O)N2NC(=O)Cc2ccccc2)cc1 (stereo not given) | > 112 µM | > 112 µM | 
54 | COC(=O)c1ccccc1/C=C1/Cc2ccccc2C1=O | > 200 µM | > 200 µM | 
55 | O=C1O[C@@H](c2ccccc2)C[C@@H]1CN1CCOCC1 |  |  | inactive
56 | Cc1ccc(S(=O)(=O)Nc2nnc(S(N)(=O)=O)s2)cc1 | > 200 µM | > 200 µM | 
57 | CC1(C)CCCCCCCCCC(C)(CCCO)C1=O (stereo not given) | > 200 µM | 26.9 µM | 
58 | COc1cccc(/C=C/C(=O)C(C)(C)C)c1 | > 24 µM | > 24 µM | 
59 | CCOC(=O)c1cc2c3c(c(O)c(OC)c2s1)N(C(=O)c1cc2c4c(c(OC)c(OC)c2s1)N(C(=O)OC(C)(C)C(Cl)(Cl)Cl)CC4)CC3 |  |  | inactive
60 | CCOC(=O)c1c[nH]cc1-c1cn(S(=O)(=O)c2ccccc2)cc1C | > 200 µM | 50.1 µM | 
61 | Cc1ccccc1S(=O)(=O)OC1NS(=O)(=O)c2ccccc21 (stereo not given) | > 200 µM | > 200 µM | 
62 | CC1=N[C@@](C)(C2CC3C=CC2C3=O)COC1=O (stereo not given in full) | > 288 µM | > 288 µM | 
63 | O=C1C=Cc2ncccc2C1=O | > 1580 µM | 5.5 µM | 
64 | COc1ccc2c(c1)CC[C@@H]1C2CC[C@]2(C)OC(=O)CCC12 (stereo not given in full) | > 87.1 µM | 12 µM | 
65 | COC(=O)C(=O)C(C(=O)C(=O)Nc1ccc(C)c(C)c1)c1nc2ccc([N+](=O)[O-])cc2[nH]c1=O (stereo not given) | > 537 µM | 234 µM | 
66 | COc1ccc(OC)c2c(OC)cc(C)cc12 | > 200 µM | 89.1 µM | 

Row | SMILES | EC50 | IC50 | outcome
67 | CC1=CCCC2C1(C)CCC(C)C2(C)Cc1cc(O)ccc1O (stereo not given) | > 100 µM | 12 µM | 
68 | N#C/C(=C/c1cccnc1)C(=O)c1ccccc1 | > 398 µM | 67.6 µM | 
69 | Cc1ccc(S(=O)(=O)SCCCSS(=O)(=O)c2ccc(C)cc2)cc1 | > 89.1 µM | 15.5 µM | 
70 | Cc1cc(NC(=O)Nc2ccc(N=Nc3cc(S(=O)(=O)O)c4cccc(S(=O)(=O)O)c4c3)c(C)c2)ccc1N=Nc1cc(S(=O)(=O)O)c2cccc(S(=O)(=O)O)c2c1 | 20 µM | > 100 µM | 
71 | O=C1c2ccccc2C(=O)c2c1nnn2-c1ccccc1 | > 200 µM | 3.55 µM | 
72 | CN(C(=O)C12C3C4(C(=O)O)C1(C(=O)N(C)C(C)(C)C)C1C2(C(=O)O)C3(C(=O)N(C)C(C)(C)C)C14C(=O)N(C)C(C)(C)C)C(C)(C)C (stereo not given) | > 151 µM | > 151 µM | 
73 | COc1ccccc1-n1c(N)c2c(C)c(-c3ccccc3)[nH]c2nc1=S | > 200 µM | 38 µM | 
74 | O=c1c2cnccc2cc2c3ccccc3ccn12 | > 200 µM | 7.41 µM | 
75 | C[N+]12CCCCC1CC2 (stereo not given) | 47.9 µM | 355 µM | 
76 | O=C(C(=C(I)I)c1ccccc1)c1ccccc1 | > 200 µM | 19.5 µM | 
77 | CCCC/C=C/C1Cc2ccccc2CN1S(=O)(=O)c1ccc(C)cc1 (stereo not given) | > 25.1 µM | 5.25 µM | 
78 | N#Cc1snc2sc(=O)sc12 | > 112 µM | 8.71 µM | 
79 | CCOC(=O)CC1NC(=O)CS1 (stereo not given) | > 138 µM | > 138 µM | 
80 | BrCCCCCOc1ccc(-c2c3ccccc3c(-c3ccc(OCCCCCBr)cc3)c3ccccc23)cc1 | > 100 µM | > 100 µM | 
81 | Nc1c(O)c(C(=O)O)cc2ccccc12 | > 200 µM | 17.8 µM | 
82 | COC1(C)OC23C(=O)N(C)C(=O)N(C)C2(O1)N(C(C)=O)C(=O)N3C (stereo not given) | > 200 µM | > 200 µM | 
83 | CN(C)CCC(=O)N1C/C(=C\c2ccc(Cl)c(Cl)c2)C(=O)/C(=C/c2ccc(Cl)c(Cl)c2)C1 | > 33.9 µM | 0.0437 µM | 
84 | CCOc1ccc2nc(NC(=O)CC(C)=O)sc2c1 | > 200 µM | 27.5 µM | 
85 | CN(C)c1nc(N(C)C)nc(N(C)C23CC4CC(CC(C4)C2)C3)n1 | > 200 µM | 64.6 µM | 
86 | O=C1Nc2ccccc2NC1C1OC(c2ccccc2)=CC1=O (stereo not given) | > 200 µM | 97.7 µM | 
